These results are taken from EP1004306A2, “Estrogen agonists/antagonists” (Pfizer Products Inc., priority 1998, dated 2000).

The ED50 is the dose at which the effect has come halfway, by size or by number of responders.

One data set relates to OVX rats. Description: Prevention of bone loss in OVX rats (female bone mineral density, DEXA). Format: in vivo. The note with it: Rattus norvegicus, 672 h, oral, read-out: oral ED50, prevents bone loss in OVX rats. The source says: Bone mineral density, a measure of bone mineral content, accounts for greater than 80% of a bone's strength. Loss of bone mineral density with age and/or disease reduces a bone's strength and renders it more prone to fracture. Bone mineral content is accurately measured in people and animals by dual x-ray absorptiometry (DEXA) such that changes as little as 1% can be quantified. We have utilized DEXA to evaluate changes in bone mineral density due to estrogen deficiency following ovariectomy (surgical removal of ovaries) and treatment with vehicle, estradiol (E2), keoxifen (raloxifen), or other estrogen agonists. The purpose of these studies is to evaluate the ability of the compounds of this invention to prevent estrogen deficiency bone loss as measured by DEXA. Female (S-D) rats 4-6 months of age undergo bilateral ovariectomy or sham surgery and allowed to recover from anesthesia. […] (Hologic, Inc. Waltham, MA) and bone mineral density is determined in the distal portion of the femur at a site from 1cm to 2cm from the distal end of the femur using the high resolution software supplied by Hologic. Bone mineral density is determined by dividing the bone mineral content by the bone area of the distal femur. […] Mean bone mineral density is obtained for each animal and statistical differences (p<0.05) from the vehicle-treated ovariectomy and sham-operated group were determined by t test.

Data set [1] has as its system adult ORX rats. Description: Male osteoporosis model: total serum cholesterol. Format: in vivo, Sprague-Dawley male rats. The note with it: for decrease of total serum cholesterol: ORX rats. The procedure:
(§1) Fifty Sprague-Dawley male rats were sham-operated (n=10) or ORX (n=40) at 10 months of age. Ten rats were autopsied on day 0 as basal controls. ORX rats were treated (daily p.o.) with either vehicle (10% ethanol in water) or (-)Cis-6-phenyl-5-[4-(2-pyrrolidin-1-yl-ethoxy)phenyl]-5,6,7,8-tetrahydronaphthalen-2-ol at 1, 10, or 100 µg/kg/day for 60 days. There were 10 rats per each subgroup. all rats were given subcutaneous injections with 10 mg/kg of calcein (Sigma Chemical Co., St. Louis, MO) on 13 and 3 days before autopsy. • 1) Total serum cholesterol: Total serum cholesterol was determined using a high performance cholesterol colormetic assay (Boehringer Mannheim Biochemicals, Indianapolis, IN). • 2) Prostate weight: The prostate weight was determined immediately at autopsy. • 3) Femoral Bone Mineral Measurements: The right femur from each rat was removed at autopsy and scanned using dual energy x-ray absorptiometry (DEXA, QDR 1000/W, Hologic Inc., Waltham, MA) equipped with "Regional High Resolution Scan" software (Hologic Inc., Waltham, MA). The scan field size is 5.08 x 1.902 cm, resolution was 0.0254 x 0.0127 cm and scan speed is 7.25 mim/second. The femoral scan images were analyzed and bone area, bone mineral content (BMC), and bone mineral density (BMD) of whole femora (WF), distal femoral metaphyses (DFM), femoral shaft (FS) were determined according to the method described in H. Z. Ke et al., Droloxifene, a New Estrogen Antagonist/Agonist, Prevents Bone Loss in Ovariectomized Rats. ENDOCRINOLOGY 136;2435-2441, 1995. • 4) Third Lumbar Vertebral Body (LV3) Histomorphometry: The LV3 was removed at autopsy, dissected free of muscle, fixed in 70% ethanol, dehydrated in graded concentrations of ethanol, defatted in acetone, then embedded in methyl methacrylate (Eastman Organic Chemicals, Rochester, NY). Longitudinal sections of LV3 at 4 and 10 µm thickness were cut using Reichert-Jung Polycut S microtome. One 4 µm and one 10 µm sections from each rat will be used for cancellous bone histomorphometry. […]

For data set [2], the system named is adult ORX rats. In words: Male osteoporosis model: femoral bone mineral measurements (DEXA). Format: in vivo, Sprague-Dawley male rats. The note with it: 10 or 100 µg/kg/day p.o. for 60 days; compared to ORX controls. On the procedure:
(§2) Fifty Sprague-Dawley male rats were sham-operated (n=10) or ORX (n=40) at 10 months of age. Ten rats were autopsied on day 0 as basal controls. ORX rats were treated (daily p.o.) with either vehicle (10% ethanol in water) or (-)Cis-6-phenyl-5-[4-(2-pyrrolidin-1-yl-ethoxy)phenyl]-5,6,7,8-tetrahydronaphthalen-2-ol at 1, 10, or 100 µg/kg/day for 60 days. There were 10 rats per each subgroup. all rats were given subcutaneous injections with 10 mg/kg of calcein (Sigma Chemical Co., St. Louis, MO) on 13 and 3 days before autopsy. • 1) Total serum cholesterol: Total serum cholesterol was determined using a high performance cholesterol colormetic assay (Boehringer Mannheim Biochemicals, Indianapolis, IN). • 2) Prostate weight: The prostate weight was determined immediately at autopsy. • 3) Femoral Bone Mineral Measurements: The right femur from each rat was removed at autopsy and scanned using dual energy x-ray absorptiometry (DEXA, QDR 1000/W, Hologic Inc., Waltham, MA) equipped with "Regional High Resolution Scan" software (Hologic Inc., Waltham, MA). The scan field size is 5.08 x 1.902 cm, resolution was 0.0254 x 0.0127 cm and scan speed is 7.25 mim/second. […]

Data set [3] concerns adult ORX rats. Description: Male osteoporosis model: compression test of fifth lumbar vertebral body (LV5). Type of data set: in vivo, Sprague-Dawley male rats. The note with it: for Maximal Load of LV5: ORX rats, daily p.o. 60 days, p < 0.05 vs. ORX. The procedure:
as §1, with “ORX rats were treated (daily p.o.) with either vehicle (10% ethanol in water) or (-)Cis-6-phenyl-5-[4-(2-pyrrolidin-1-yl-ethoxy)phenyl]-5,6,7,8-tetrahydronaphthalen-2-ol at 1, 10, or 100 µg/kg/day for 60 days.” left out, “NY).” for “NY). Longitudinal sections of LV3 at 4 and 10 µm thickness were cut using Reichert-Jung Polycut S microtome. One 4 µm and one 10 µm sections from each rat will be used for cancellous bone histomorphometry.”
• 1. […] A compression test was used to determine the mechanical properties of LV5, as described by Mosekilde et al. (Mosekilde, L., Danielsen, C. C., Gasser, J. The effect on vertebral bone mass and strength of long term treatment with antiresorptive agents, human PTH (1-38), and combination therapy, assessed in aged ovariectomized rats. Endocrinol 1994; 134:2126-2134). […] The maximal load and stiffness were calculated from the load-displacement curve.

The subject of data set [4] is adult ORX rats. In words: Male osteoporosis model: prostate weight and histology. Type of data set: in vivo, Sprague-Dawley male rats. Conditions: 10 and 100 µg/kg/d p.o. for 60 days; compared to ORX controls. The procedure:
as §2

Data set [5] in a line: Male osteoporosis model: body weight. Type of data set: in vivo, Sprague-Dawley male rats. Conditions: 1, 10, 100 µg/kg/day p.o. for 60 days; compared to both sham and ORX controls. The procedure: as §2
Data set [6] concerns adult ORX rats. Description: Male osteoporosis model: third lumbar vertebral body (LV3) histomorphometry. Format: in vivo, Sprague-Dawley male rats. The note with it: for Activation Frequency: ORX rats, daily p.o. 60 days. On the procedure: Fifty Sprague-Dawley male rats were sham-operated (n=10) or ORX (n=40) at 10 months of age. Ten rats were autopsied on day 0 as basal controls. […] There were 10 rats per each subgroup. all rats were given subcutaneous injections with 10 mg/kg of calcein (Sigma Chemical Co., St. Louis, MO) on 13 and 3 days before autopsy. • 1) Total serum cholesterol: Total serum cholesterol was determined using a high performance cholesterol colormetic assay (Boehringer Mannheim Biochemicals, Indianapolis, IN). • 2) Prostate weight: The prostate weight was determined immediately at autopsy. • 3) Femoral Bone Mineral Measurements: The right femur from each rat was removed at autopsy and scanned using dual energy x-ray absorptiometry (DEXA, QDR 1000/W, Hologic Inc., Waltham, MA) equipped with "Regional High Resolution Scan" software (Hologic Inc., Waltham, MA). The scan field size is 5.08 x 1.902 cm, resolution was 0.0254 x 0.0127 cm and scan speed is 7.25 mim/second. The femoral scan images were analyzed and bone area, bone mineral content (BMC), and bone mineral density (BMD) of whole femora (WF), distal femoral metaphyses (DFM), femoral shaft (FS) were determined according to the method described in H. Z. Ke et al., Droloxifene, a New Estrogen Antagonist/Agonist, Prevents Bone Loss in Ovariectomized Rats. ENDOCRINOLOGY 136;2435-2441, 1995. • 4) Third Lumbar Vertebral Body (LV3) Histomorphometry: The LV3 was removed at autopsy, dissected free of muscle, fixed in 70% ethanol, dehydrated in graded concentrations of ethanol, defatted in acetone, then embedded in methyl methacrylate (Eastman Organic Chemicals, Rochester, NY). Longitudinal sections of LV3 at 4 and 10 µm thickness were cut using Reichert-Jung Polycut S microtome. One 4 µm and one 10 µm sections from each rat will be used for cancellous bone histomorphometry. The 4 µm sections were stained with modified Masson's Trichrome stain while the 10 µm sections remained unstained.
A Bioquant OS/2 histomorphometry system (R&M Biometrics, Inc., Nashville, TN) was used for the static and dynamic histomorphometric measurements of the secondary spongiosa of the proximal tibial metaphyses between 1.2 and 3.6 mm distal to the growth plate-epiphyseal junction. The first 1.2 mm of the tibial metaphyseal region need to be omitted in order to restrict measurements to the secondary spongiosa. The 4 µm sections will be used to determine indices related to bone volume, bone structure, and bone resorption, while the 10 µm sections will be used to determine indices related to bone formation and bone turnover.
• 1. Total metaphyseal area (TV, mm^2): metaphyseal area between 1.2 and 3.6 mm distal to the growth plate-epiphyseal junction. • 2. Trabecular bone area (BV, mm^2): total area of trabeculae within TV. • 3. Trabecular bone perimeter (BS, mm): the length of total perimeter of trabeculae. • 4. Trabecular bone volume (BV/TV,%): BV / TV x 100. • 5. Trabecular bone number (TBN,#/mm): 1.199 / 2 x BS / TV. • 6. Trabecular bone thickness (TBT, µm): (2000 / 1.199) x (BV / BS). • 7. Trabecular bone separation (TBS, µm): (2000 x 1.199) x (TV - BV).
• 1. Osteoclast number (OCN, #): total number of osteoclast within total metaphyseal area. • 2. […] (OCP, mm): length of trabecular perimeter covered by osteoclast. • 3. Osteoclast number/mm (OCN/mm, #/mm): OCN / BS. • 4. Percent osteoclast perimeter (%OCP,%): OCP / BS x 100.
• 1. Single-calcein labeled perimeter (SLS, mm): total length of trabecular perimeter labeled with one calcein label. • 2. Double-calcein labeled perimeter (DLS, mm): total length of trabecular perimeter labeled with two calcein labels. • 3. Inter-labeled width (ILW, µm): average distance between two calcein labels. • 4. Percent mineralizing perimeter (PMS,%):(SLS/2 + DLS) / BS x 100. • 5. Mineral apposition rate (MAR, µm/day): ILW / label interval. • 6. Bone formation rate/surface ref. (BFR/BS, µm^2/d/µm): (SLS/2 + DLS) x MAR / BS. • 7. […]

In another data set the test system is Male Sprague-Dawley rats. In words: Effect on prostate weight. Format: in vivo. On the procedure:
Male Sprague-Dawley rats, three months of age are administered by subcutaneous injection either vehicle (10% ethanol in water), estradiol (30 µg/kg), testosterone (1 mg/kg) or a compound of formula I daily for 14 days (n=6/group). After 14 days the animals are sacrificed, the prostate is removed, and the wet prostate weight is determined. Mean weight is determined and statistical significance (p<0.05) is determined compared to the vehicle-treated group using Student's t-test.

The subject of data set [7] is male rats. Conditions: treatment of male rats; cited from earlier work.
For data set [8], the system named is male rats. The note with it: 200 and 400 mg/kg/day; cited from earlier work.
Setting [9] is: 10 or 100 µg/kg/day p.o. for 60 days, compared to ORX controls.

For `Oc1ccc2c(c1)CC[C@H](c1ccccc1)[C@@H]2c1ccc(OCCN2CCCC2)cc1` [(-)Cis-6-phenyl-5-[4-(2-pyrrolidin-1-yl-ethoxy)phenyl]-5,6,7,8-tetrahydronaphthalen-2-ol], in the data set with OVX rats, the 50% effective dose (ED50) was approximately 1 µg/kg. In addition, the entries for the “decrease of total serum cholesterol” value with adult ORX rats [1] (10 µg/kg/d p.o. for 60 days) and with adult ORX rats [1] (100 µg/kg/d p.o. for 60 days) were 46% and 68%, respectively. In addition, the total serum cholesterol result in the data set on adult ORX rats [1] (1, 10, 100 µg/kg/day p.o. for 60 days, compared to both sham and ORX controls) is reported as “dose-dependently decreased”. In addition, in the data set on adult ORX rats [2], the “age-related and ORX-induced decreases in DFBMD” value is listed as “completely prevented”. In the data set with adult ORX rats [3] (setting [9]), the “age-related and ORX-induced decreases in maximal load” value is on record as “completely prevented”. The results for the “Maximal Load of LV5” value in the data set on adult ORX rats [3] (10 µg dose group) and with adult ORX rats [3] (100 µg dose group) were 393 ± 27 N and 393 ± 25 N, respectively. Also, the prostate histology parameters entry with adult ORX rats [4] was “no effect”. In addition, the prostate weight result with adult ORX rats [4] is “no effect”. The body weight entry in data set [5] is on record as “dose-dependently decreased”. For the same compound, the “age-related and ORX-induced decreases in TBV” value in the data set on adult ORX rats [6] (setting [9]) was “completely prevented”. In addition, in the data set with adult ORX rats [6] (setting [9]), the bone resorption entry was “significantly decreased”. The bone turnover entry in the data set with adult ORX rats [6] (setting [9]) is on record as “significantly decreased”. Also, the “Activation Frequency” value is reported as 2.06 ± 0.28 #/year in the data set with adult ORX rats [6] (10 µg dose group); 0.93 ± 0.08 # #/year with adult ORX rats [6] (100 µg dose group, p < 0.05 vs. ORX); 2.67 ±0.34 #/year with adult ORX rats [6] (dose group printed as 1 mg, p < 0.05 vs. Sham).
As to `C[C@]12CC[C@H]3[C@@H](CCC4=CC(=O)CC[C@@]43C)[C@@H]1CC[C@@H]2O` [Testosterone, testosterone], the “prostate weight compared to vehicle” value in the data set on Male Sprague-Dawley rats (testosterone 1 mg/kg s.c. daily for 14 days) is “no effect”.
`C[C@]12CC[C@@H]3c4ccc(O)cc4CC[C@H]3[C@@H]1CC[C@@H]2O` [estrogen, estradiol]: the “prostate weight compared to vehicle” value in the data set with Male Sprague-Dawley rats (30 µg/kg s.c. daily for 14 days) is “significantly reduces prostate weight”.
Regarding `O=C(c1ccc(OCCN2CCCCC2)cc1)c1c(-c2ccc(O)cc2)sc2cc(O)ccc12` [raloxifene, 6-hydroxy-2-(4-hydroxyphenyl)-3-[4-(2-piperidinoethoxy)benzoyl] benzo[b] thiophene], in the data set on male rats [7], the ventral prostate entry is given as “regression of the ventral prostate”.
With `CC/C(=C(\c1ccccc1)c1ccc(OCCN(C)C)cc1)c1ccccc1` [tamoxifen, 1-(4-β-dimethylaminoethoxyphenyl)-1,2-diphenyl-but-1-ene], the “weights of the testes and secondary sex organs” value with male rats [8] is “reduces the weights of the testes and secondary sex organs”.
